In patent publication US6545046B2, “Method for enhanced delivery of oxybutynin and compositions thereof” (Theramax Inc., priority 2000, dated 2003):
Like-named read-outs stand apart in the source and are kept apart here.

Assays:
[1] = In vivo nasal, oral and intravenous delivery of oxybutynin in rats; plasma levels by HPLC; settings: rat; for bioavailability: read-out: Bioavailability relative to intravenous administration (100%)
Procedure: The nasal absorption of oxybutynin was studied using an in vivo technique described previously (1). Male Sprague-Dawley rats (body weight 250±25 gm) were used in these studies. Animals were fasted overnight prior to experimentation. Surgical procedures were performed under equithesin anesthesia (3 ml/kg, i.p.). An incision was made in the neck, and the trachea cannulated with polyethylene tubing (PE-260). A closed end tube was inserted through the esophagus to the posterior part of the nasal cavity to prevent drug from entering the esophagus. The nasopalatine passage was then closed with an adhesive agent to prevent drainage of the drug from the nasal cavity to the mouth.
Blood samples were collected from a cannula inserted into the femoral artery. For intravenous drug administration, the jugular vein was cannulated.
Solutions of oxybutynin hydrochloride (5 mg/kg/100 μl) were prepared in normal saline and administered through the right nostril using a microsyringe. For oral administration, rats received an aqueous solution of oxybutynin hydrochloride (5 mg/kg) administered by gavage tube. For intravenous (i.v.) administration, the same dose of oxybutynin was injected into the jugular vein (1 ml/kg body weight). Blood samples after oxybutynin administration were collected before and at […] after drug administration, centrifuged, and serum removed and stored (−70° C.) until analysis.
Differences in the plasma oxybutynin or N-desethyloxybutynin concentrations between i.v., oral, and nasal delivery routes were compared using the Student's t test.
Analysis of oxybutynin and its metabolites N-desethyloxybutynin were performed using HPLC as described by Buyse et al. (2). Extraction of standards for calibration curve and plasma samples were performed as described previously by Hughes et al. (3).
Oxybutynin and its metabolite (N-desethyloxybutynin) were analyzed using a reverse-phase column (25 cm×[…] I.D.) and eluted with mobile phase consisting of 50% acetonitrile in […] potassium phosphate buffer, pH 6.3. The mixture was filtered and degassed prior to use. The flow rate was 0.7 ml/min, and the effluent was monitored with a dual UV detector system at 210 nm.
All determinations were performed by calculating the area ratios of each compound to the internal standard. Unknown amounts were determined from calibration curves run with each day's unknown analysis.

[2] = cited from earlier work
[3] = In vivo nasal, oral and intravenous delivery of oxybutynin in rats; plasma levels by HPLC; settings: male, Sprague-Dawley, rat, mean ± SEM, read-out: AUC0-2 h
[4] = oral administration (Douchamps et al.); cited from earlier work

AUC(0-t) ([3]; inhaled or intranasal, intranasal oxybutynin 5 mg/kg) [ng·h/mL]	AUC(0-t) ([3]; oral oxybutynin 5 mg/kg) [ng·h/mL]	bioavailability ([1]; male, Sprague-Dawley, plasma, other: intranasal, intranasal 5 mg/kg) [%]	bioavailability ([1]; male, Sprague-Dawley, plasma, oral 5 mg/kg) [%]	tmax ([1]; male, Sprague-Dawley, plasma, inhaled or intranasal, 5 mg/kg, intranasal oxybutynin 5 mg/kg, read-out: tmax (converted)) [min]	tmax ([1]; male, Sprague-Dawley, plasma, po, 5 mg/kg, oral oxybutynin 5 mg/kg (solution in water), read-out: tmax (converted)) [min]	Increase in bioavailability after intranasal compared to oral administration ([1]; 5 mg/kg) [fold]	tmax ([1]; oral oxybutynin 5 mg/kg (solution in water)) [min]	SMILES	tmax ([1]; intranasal oxybutynin 5 mg/kg) [min]	Ratio N-desethyloxybutynin/Oxybutynin ([1]; intranasal oxybutynin 5 mg/kg, mean ± SEM, 4 rats)	Plasma concentration of N-desethyloxybutynin relative to parent compound oxybutynin ([1]; oral oxybutynin 5 mg/kg)	tmax ([1]; oral oxybutynin 5 mg/kg) [min]	Patient withdrawal ([2]; intravesical oxybutynin therapy, several studies)	Patients with adverse reactions requiring discontinuance of therapy ([2]; oral 5 mg 3 times daily, clinical studies)	Systemic bioavailability [4] [%]
–	–	–	–	–	–	–	–	CCNCC#CCOC(=O)C(O)(c1ccccc1)C1CCCCC1 (stereo not drawn) [N-desethyloxybutynin]	96	~0.55	approximately 12 fold	66	–	–	–
1770 ± 190	180 ± 53	90	~9	10	30 to 40	~10	40	CCN(CC)CC#CCOC(=O)C(O)(c1ccccc1)C1CCCCC1 (stereo not drawn) [oxybutynin, Benzeneacetic acid, a-cyclohexyl-a-hydroxy-4-(diethylamino)-2-butynyl ester]	–	–	–	–	up to 65%	about 20%	< 6
